Data on one compound can be found in US6479487B1, “6, 9-disubstituted 2-[trans-(4-aminocyclohexyl)amino] purines” (Aventis Pharmaceuticals Inc., priority 1998, dated 2002).

Read-outs that look alike come from different tables or passages of the source.

Test [1] has as its system PC12 cells, or rat sympathetic neurons. The settings on record: cited from earlier work.
The subject of a further test is cortical neurons. The settings on record: Park et al. 1997; read-out: IC50, protection against camptothecin-induced cortical neuronal death; cited from earlier work.
In the next test the test system is HCT-15. The experiment in a line: In vitro tumor cell proliferation, HCT-15. The class given is cell-based, human. As to conditions: read-out: In vitro Tumor Cell Proliferation (IC50, μM) Colon HCT-15. The procedure, abridged:
(§1)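 Growth was quantified by sulforhodamine B staining of TCA-fixed cells after 3 days of drug plus 4 more days with fresh drug, or by CyQUANT after 3 days of drug and freezing at −80° C. Counted viable cells were plated and incubated overnight at 37° C before drug.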

In test [2] the test system is CDK-cyclin protein kinases. As to conditions: Vesely et al. 1994; cited from earlier work.
The subject of test [3] is neuronal PC12 cells and sympathetic neurons. The settings on record: two model systems of neuronal survival; Park et al. 1996; cited from earlier work.
The subject of another test is DU145. The test is described as follows: In vitro tumor cell proliferation, DU145. The class given is cell-based, human. The settings on record: Homo sapiens, DU-145, DU145; many values given with an undefined *; read-out: In vitro Tumor Cell Proliferation (IC50, μM) Prostate DU145. The procedure, abridged: as §1
Test [4] has as its system cAMP- and cGMP-dependent kinases, and protein kinase C. The settings on record: cited from earlier work.
In a further test the test system is DMS-114. The experiment in a line: In vitro tumor cell proliferation, DMS-114. Type of test: cell-based, human. The settings on record: many values given with an undefined *, read-out: In vitro Tumor Cell Proliferation (IC50, μM) Lung DMS-114. The procedure, abridged:
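Human small cell lung carcinoma DMS-114 cells plated overnight, then drug-treated for 3 days, medium and drug renewed, and incubated 4 more days. Growth read by sulforhodamine B staining after TCA fixation; alternatively by CyQUANT after 3 days' drug exposure and freezing at −80 °C.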

The next test concerns HT-29. The test is described as follows: In vitro tumor cell proliferation, HT-29. The class given is cell-based, human. As to conditions: many values given with an undefined *, read-out: In vitro Tumor Cell Proliferation (IC50, μM) Colon HT-29. The method, boiled down:
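HT-29 cells seeded overnight at 37° C, then exposed to drug for 3 days, refed with fresh drug-containing medium for 4 more days. Proliferation read by sulforhodamine B staining after TCA fixation; alternatively by CyQUANT after freezing plates at −80° C following 3 days' drug exposure.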

The subject of another test is A549. The experiment in a line: In vitro tumor cell proliferation, A549. The class given is cell-based, human. As to conditions: Homo sapiens; A549; many values given with an undefined *; read-out: In vitro Tumor Cell Proliferation (IC50, μM) Lung A549. The procedure, abridged: as §1
The subject of a further test is PC-3. The experiment in a line: In vitro tumor cell proliferation, PC-3. The settings on record: Homo sapiens; PC-3; many values given with an undefined *; read-out: In vitro Tumor Cell Proliferation (IC50, μM) Prostate PC-3. The class given is cell-based, human. The method, boiled down: as §1
The test system of a further test is MCF-7. The experiment in a line: In vitro tumor cell proliferation, MCF-7. Type of test: cell-based, human. The settings on record: Homo sapiens, MCF7, MCF-7; sulforhodamine B or CyQUANT assay; read-out: In vitro Tumor Cell Proliferation (IC50, μM) Breast MCF-7. How it is done:
The proliferation of tumor cells was measured using a sulforhodamine B assay as described in Skehan, P., et al., J. Natl. Cancer Inst. […] Tumor cells were harvested with trypsin-EDTA, cells that excluded trypan blue were counted, added to 96-well plates and incubated overnight at 37° C. Drug was added to the wells following dilution in culture medium. Three days later, the medium was removed and replenished with medium containing fresh drug and incubated an additional 4 days. The cells were then fixed with 0.1 ml 10% trichloroacetic acid for 60 min at 4° C. The plates were rinsed five times with tap water, air-dried and stained for 30 min with 0.4% sulforhodamine B in 1% acetic acid and air-dried.
Alternatively, the CyQUANT cell proliferation assay was used to quantitate cell proliferation.
Alternatively, the CyQUANT cell proliferation assay was used to quantify tumor cell proliferation. Tumor cells were harvested with trypsin-EDTA, cells that excluded trypan blue were counted, added to 96-well plates and incubated overnight at 37° C. Drug was added to the wells following dilution in culture medium. Three days later the medium was removed and the plates frozen at −80° C. for at least 30 minutes.
MCF7 is a human breast adenocarcinoma, hormone-dependent (HTB 22);

As to `Cn1cnc2c(NCc3ccccc3)nc(NCCO)nc21` [Olomoucine, 6-(benzylamino)-2-[(2-hydroxyethyl)amino]-9-methylpurine, reference compound], the “concentration giving maximal protection from death” value in test [1] (camptothecin-treated, minimum concentrations that fully inhibit DNA synthesis by proliferating PC12 cells) was 200 µM. The cell death entry in test [1] (day 6, in the presence or absence of camptothecin) is recorded as “approximately 30%”. Also, the IC50 with cortical neurons is 100 µM; in the test on HCT-15 (HCT-15) it was 63 µM; in the test with HCT-15 (Homo sapiens, HCT-15, HCT-15) it was 62 µM; in test [2], roughly 7 µM; in the test on DU145 it was greater than 100 µM; in the test with DMS-114 (DMS-114), 76 µM. For the same compound, the IC50 is 50 µM in the test with DMS-114 (Homo sapiens, DMS-114, DMS-114); 58 µM in the test on HT-29 (HT-29); 53 µM with HT-29 (Homo sapiens, HT-29, HT-29); 69 µM in the test with A549; 55 µM with PC-3; 35 µM in the test with MCF-7. In addition, the “effect on death of neuronal PC12 cells and sympathetic neurons” value in test [3] is recorded as “suppress the death”. In addition, in [4], the “effect on other major protein kinases” value is recorded as “no effect”.
